Assay results as given in ChEMBL document CHEMBL1129646, “Structure-activity relationships study of two series of leukotriene B4 antagonists: novel indolyl and naphthyl compounds substituted with a 2-[methyl(2-phenethyl)amino]-2-oxoethyl side chain” (J Med Chem, 1996).

How the values were obtained:
[1] = target: Leukotriene B4 receptor (Homo sapiens, UniProt Q9NPC1+Q15722); experiment: LTB4 receptor binding from radioligand binding assay using human intact neutrophils PMN
[2] = LTB4 receptor binding from radioligand binding assay using guinea pig spleen cell membrane
[3] = target: T1, Leukotriene B4 receptor 1 (Homo sapiens, UniProt Q15722); experiment: Compound was evaluated for LTB4 receptor binding, obtained from radioligand binding assay using human intact neutrophils PMN
T1 sequence (Q15722 whole entry): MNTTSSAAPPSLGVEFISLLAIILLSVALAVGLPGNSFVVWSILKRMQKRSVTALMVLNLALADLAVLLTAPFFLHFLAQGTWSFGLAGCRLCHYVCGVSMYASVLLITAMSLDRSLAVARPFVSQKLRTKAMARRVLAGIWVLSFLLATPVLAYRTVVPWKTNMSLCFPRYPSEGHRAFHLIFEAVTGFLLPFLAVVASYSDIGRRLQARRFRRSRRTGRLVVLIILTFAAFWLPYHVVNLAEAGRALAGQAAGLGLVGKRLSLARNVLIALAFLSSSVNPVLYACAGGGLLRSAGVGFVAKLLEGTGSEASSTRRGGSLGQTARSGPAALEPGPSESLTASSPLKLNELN

[4] = target: T1, Leukotriene B4 receptor 1; experiment: Compound was evaluated for LTB4 receptor binding obtained from radioligand binding assay using human intact neutrophils PMN; No activity

| SMILES | IC50 [1] | IC50 [2] | IC50 [3] | IC50 [4] |
| --- | --- | --- | --- | --- |
| CN(CCc1ccccc1)C(=O)Cc1cc(C(=O)O)c(OCc2ccccc2)c2ccccc12 | 80 nM | 6.5 nM | – | – |
| CN(CCc1ccccc1)C(=O)Cn1cc(/C=C/C(=O)O)c2ccc(OCc3ccccc3)cc21 | – | > 300 nM | – | – |
| CN(CCc1ccccc1)C(=O)Cc1cc(CCC(=O)O)cc2c(-c3ccccc3)cccc12 | 40 nM | 3.5 nM | – | – |
| C/C(=C\c1cn(CC(=O)N(C)CCc2ccccc2)c2ccc(OCc3ccccc3)cc12)C(=O)O | 11 nM | 5 nM | – | – |
| CN(CCc1ccccc1)C(=O)Cn1cc(/C=C/C=C/C(=O)O)c2cc(OCc3ccccc3)ccc21 | 19 nM | 8 nM | – | – |
| CN(CCc1ccccc1)C(=O)Cc1cc(CCC(=O)O)cc2c(OCc3ccccc3)cccc12 | – | 10 nM | – | – |
| CC/C(=C\c1cn(CC(=O)N(C)CCc2ccccc2)c2ccc(OCc3ccccc3)cc12)C(=O)O | 7.6 nM | 1.3 nM | – | – |
| CN(CCc1ccccc1)C(=O)Cn1cc(/C=C/C2N=NN=N2)c2cc(OCc3ccccc3)ccc21 | 19 nM | 4.5 nM | – | – |
| CN(CCc1ccccc1)C(=O)Cc1cc(C(=O)O)cc2cc(OCc3ccccc3)ccc12 | 7.75 nM | 1.07 nM | – | – |
| CN(CCc1ccccc1)C(=O)Cn1cc(CC(=O)O)c2cc(OCc3ccccc3)ccc21 | – | 30 nM | – | – |
| CN(CCc1ccccc1)C(=O)Cn1cc(/C=C/C(=O)O)c2cc(OCc3ccccc3)ccc21 | 53 nM | 4.3 nM | – | – |
| CN(CCc1ccccc1)C(=O)Cn1c(C(=O)O)cc2cc(OCc3ccccc3)ccc21 | 11.2 nM | 2.5 nM | – | – |
| CN(CCc1ccccc1)C(=O)Cc1cc(CCCCC(=O)O)cc2c(OCc3ccccc3)cccc12 | 100 nM | 2.8 nM | – | – |
| Cc1c(C(=O)O)c2cc(OCc3ccccc3)ccc2n1CC(=O)N(C)CCc1ccccc1 | 90 nM | 5 nM | – | – |
| CC/C(=C\c1cc(CC(=O)N(C)CCc2ccccc2)c2cccc(OCc3ccccc3)c2c1)C(=O)O | 50 nM | 0.8 nM | – | – |
| CN(CCc1ccccc1)C(=O)Cc1cc(/C=C/C(=O)O)cc2c(Oc3ccccc3)cccc12 | 20 nM | 2 nM | – | – |
| CN(CCc1ccccc1)C(=O)Cc1cc(/C=C/C(=O)O)cc2c(-c3ccccc3)cccc12 | 50 nM | 1 nM | – | – |
| CN(O)C(=O)c1cc(CC(=O)N(C)CCc2ccccc2)c2cccc(OCc3ccccc3)c2c1 | – | – | 60 nM | – |
| CN(CCc1ccccc1)C(=O)Cc1cc(/C=C/C(=O)O)cc2c(OCc3ccccc3)cccc12 | 3.55 nM | 0.58 nM | – | – |

| SMILES | IC50 [1] | IC50 [2] | IC50 [3] | IC50 [4] |
| --- | --- | --- | --- | --- |
| CN(CCc1ccccc1)C(=O)Cc1cc(C(=O)O)cc2c(-c3ccccc3)cccc12 | 8.25 nM | 0.45 nM | – | – |
| CN(CCc1ccccc1)C(=O)Cn1cc(CCC(=O)O)c2cc(OCc3ccccc3)ccc21 | – | 40 nM | – | – |
| CN(CCc1ccccc1)C(=O)Cn1cc(C(C(=O)O)c2ccccc2)c2c(OCc3ccccc3)cccc21 (stereo not drawn) | 19 nM | 2.5 nM | – | – |
| CCCCCOc1cccc2c(CC(=O)N(C)CCc3ccccc3)cc(C(=O)O)cc12 | 9 nM | 0.6 nM | – | – |
| CC/C(=C\c1cn(CC(=O)N(C)CCc2ccccc2)c2cccc(OCc3ccccc3)c12)C(=O)O | 35 nM | 1.5 nM | – | – |
| C/C(=C\c1cn(CC(=O)N(C)CCc2ccccc2)c2cccc(OCc3ccccc3)c12)C(=O)O | 24.5 nM | 2.33 nM | – | – |
| CN(CCc1ccccc1)C(=O)Cn1cc(/C=C/C(=O)O)c2cccc(OCc3ccccc3)c21 | – | > 300 nM | – | Not Active |
| CN(CCc1ccccc1)C(=O)Cc1cc(CCC(=O)O)cc2c(Oc3ccccc3)cccc12 | 250 nM | 20 nM | – | – |
| CN(CCc1ccccc1)C(=O)Cn1cc(C(=O)O)c2cc(OCc3ccccc3)ccc21 | 26.3 nM | 1.5 nM | – | – |
| CN(CCc1ccccc1)C(=O)Cc1cc(/C=C/C2N=NN=N2)cc2c(OCc3ccccc3)cccc12 | 5 nM | 3 nM | – | – |
| COc1cccc2c(CC(=O)N(C)CCc3ccccc3)cc(C(=O)O)cc12 | 700 nM | > 30 nM | – | – |
| CN(CCc1ccccc1)C(=O)Cc1cc(/C=C/C=C/C(=O)O)cc2c(OCc3ccccc3)cccc12 | 8 nM | 1 nM | – | – |
| CN(CCc1ccccc1)C(=O)Cn1cc(C=O)c2cc(OCc3ccccc3)ccc21 | – | – | > 300 nM | – |
| CN(CCc1ccccc1)C(=O)Cn1cc(C(=O)c2cccc(C(=O)O)c2)c2cc(OCc3ccccc3)ccc21 | 8.5 nM | 12 nM | – | – |
| CN(CCc1ccccc1)C(=O)Cn1cc(/C=C/C(=O)O)c2c(OCc3ccccc3)cccc21 | 16.5 nM | 1 nM | – | – |
| CN(CCc1ccccc1)C(=O)Cn1cc(/C=C/C=C/C(=O)O)c2c(OCc3ccccc3)cccc21 | 15 nM | 1.5 nM | – | – |
| CN(CCc1ccccc1)C(=O)Cn1cc(C(=O)O)c2c(OCc3ccccc3)cccc21 | 20.3 nM | 1.45 nM | – | – |
| CN(CCc1ccccc1)C(=O)Cc1cc(C(=O)O)cc2c(Oc3ccccc3)cccc12 | 25 nM | 1.5 nM | – | – |
